Here are results for two compounds from patent publication US20050164913A1, “Disinfecting composition” (Veckis Industries Ltd., priority 2002, published 2005).

What all share (type): cell-based
In one experiment the test system is E. coli (strain 1257). Put plainly: Antimicrobial activity of samples: death time of test-microorganism E. coli.
Experiment [1] relates to Staphylococcus aureus (strain 906). Put plainly: Antimicrobial activity of samples: death time of test-microorganism Staphylococcus aureus.
The test system of experiment [2] is Bacillus cereus (strain 96). Kind of experiment: Antimicrobial activity of samples: death time of test-microorganism Bacillus cereus. Conditions: sample concentration 5.0 %.
The mark [3] stands for this setting: statement of the text on Table 1.

Some results are limits rather than exact numbers.

For `O=C(O)CN(CCN(CC(=O)O)CC(=O)O)CC(=O)O.[Zn]` [Ethylenediaminotetraacetate zinc complex], the “Death time of test-microorganisms (min) E. coli” value in the experiment on E. coli (strain 1257) (sample concentration 0.1 %) and with E. coli (strain 1257) (sample concentration 5.0 %) was more than 30 min in each case. The “Death time of test-microorganisms (min) Staphylococcus aureus” value in experiment [1] (sample concentration 0.1 %) and in experiment [1] (sample concentration 5.0 %) was more than 30 min each time.
Monoglycinatecopper chloride complex: in experiment [2], the “Death time of test-microorganisms (min) Bacillus cereus” value was more than 360 min. Besides, the figures for the “Death time of test-microorganisms (min) E. coli” value in the experiment on E. coli (strain 1257) (sample concentration 0.1 %), in the experiment on E. coli (strain 1257) (sample concentration 0.2 %) and in the experiment with E. coli (strain 1257) (sample concentration 0.5 %) were more than 30 min, 30 min and 15 min, respectively. For the same compound, the “Antibacterial action in words towards gram negative bacteria (vegetative forms)” value in the experiment on E. coli (strain 1257) (setting [3]) is listed as “high enough efficacy”. The “Death time of test-microorganisms (min) Staphylococcus aureus” value in experiment [1] (sample concentration 0.1 %), in experiment [1] (sample concentration 0.2 %), in experiment [1] (sample concentration 0.5 %) and in experiment [1] (sample concentration 5.0 %) was more than 30 min throughout. Moreover, the “Antibacterial action in words towards gram positive bacteria (vegetative forms)” value in experiment [1] (setting [3]) is listed as “high enough efficacy”.
